Here are results for eight compounds from US7429679B2, “Sulphonic acid salt of sibutramine” (CJ Corporation, priority 2005, dated 2008).

Converted amounts (≈) assume the structure as drawn. “Also recorded” adds a separate entry of the source. Counter-ions that a name gives are not always drawn.

Data set [1] is described as follows: Evaluation of hygroscopicity: water content (K.F.) after exposure to humid conditions at 25° C. The format is physicochemical. Conditions: for change in water content under humid conditions (in words): relative humidities of 10%, 75% and 90%, up to one week or longer. The protocol:
The sulphonic acid salts of sibutramine, prepared in Examples 1 to 5, and sibutramine hydrochloride monohydrate were exposed to humid conditions (10%, 75% and 90% RH) at 25° C. for a period of three days or one week. Then, the water content (K.F. water %) of the samples was measured.

A short description of data set [2]: Evaluation of stability: stringent 60° C. heat treatment, content by HPLC. Type of data set: physicochemical. Further details: content (HPLC) upon 60° C. heat treatment: reference not given here. The protocol:
The sulphonic acid salts of sibutramine, prepared in Examples 1 to 5, and sibutramine hydrochloride monohydrate were exposed to a stringent 60° C. heat treatment.
HPLC was performed under the following conditions.
Wavelength of UV detection: 225 nm
Column: octadecyl silica gel, C18 (4.6×150 mm, 5 μm)
Mobile phase: an aqueous solution of ammonium phosphate monohydride (0.05 M) (adjusted to pH 6 with phosphoric acid): acetonitrile=35:65

A short description of data set [3]: Evaluation of solubility in distilled water and aqueous solutions having various pH values. Type of data set: physicochemical. To be noted: for solubility compared to sibutramine hydrochloride monohydrate (in words): distilled water (DW) and buffer solutions at various pH values.
Data set [4] can be described thus: Evaluation of light stability: exposure to fluorescence at 25° C., ICH light stability test chamber, content by HPLC. Type of data set: physicochemical. The arrangement: content (HPLC) in light stability test: reference not given here. The protocol: A light stability test was performed as follows. The sulphonic acid salts of sibutramine, prepared in Examples 1 to 5, and sibutramine hydrochloride monohydrate were exposed to fluorescence at 25° C. using a light stability test chamber suitable for the ICH guideline, for storage periods of 1, 2 and 4 weeks.

In data set [5] the test system is rat. To be noted: oral; cited from earlier work.
Data set [6] deals with mouse. To be noted: intravenous; cited from earlier work.
Setting [7] is: 10% relative humidity, 25° C., 1 week.
[8] abbreviates: 10% relative humidity, 25° C., 3 days.
The mark [9] stands for this setting: 75% relative humidity, 25° C., 1 week.
[10] abbreviates: 75% relative humidity, 25° C., 3 days.
[11] abbreviates: 90% relative humidity, 25° C., 1 week.
[12] abbreviates: 90% relative humidity, 25° C., 3 days.

`CC(C)CC(N(C)C)C1(c2ccc(Cl)cc2)CCC1.CC1(C)C2CCC1(CS(=O)(=O)O)C(=O)C2` (stereo not shown) [Camsylate, sibutramine camsylate]: the “water content (K.F. water %)” value in data set [1] (setting [7]) is recorded as 0.08%; in data set [1] (setting [8]), 0.09%; in data set [1] (setting [9]) it was 0.06%; in data set [1] (setting [10]), 0.06%; in data set [1] (setting [11]), 0.12%; in data set [1] (setting [12]), 0.08%. Also, in data set [1] (Initial), the “water content (K.F. water %)” value was 0.09%. Moreover, the “change in water content under humid conditions (in words)” value (from here on “change in water content”) in data set [1] is on record as “almost no change in water content”. Moreover, the “content (HPLC) upon 60° C. heat treatment” value amounted to 1.000 in data set [2] (60° C., 1 wk); 0.999 in data set [2] (60° C., 2 wks); 0.999 in data set [2] (60° C., 4 wks); 1.000 in data set [2] (Initial). Moreover, the solubility amounted to 23.67 mg/mL in data set [3] (DW (distilled water)); 16.18 mg/mL in data set [3] (pH 1.2); 16.75 mg/mL in data set [3] (pH 4.0); 7.45 mg/mL in data set [3] (pH 5.3); 29.83 mg/mL in data set [3] (pH 6.8); 13.97 mg/mL in data set [3] (pH 7.4). Besides, the “content (HPLC) in light stability test” value turned out to be 1.000 in data set [4] (Initial); 0.999 in data set [4] (fluorescence, 25° C., 1 wk); 1.000 in data set [4] (fluorescence, 25° C., 2 wks); 0.999 in data set [4] (fluorescence, 25° C., 4 wks).

With `CC(C)CC(N(C)C)C1(c2ccc(Cl)cc2)CCC1` (stereo not shown) [Edisylate, sibutramine edisylate], the “water content (K.F. water %)” value in data set [1] (setting [7]) is recorded as 0.05%; in data set [1] (setting [8]), 0.06%; in data set [1] (setting [9]), 0.05%; in data set [1] (setting [10]) it was 0.04%; in data set [1] (setting [11]) it was 0.05%; in data set [1] (setting [12]), 0.04%. Also, in data set [1] (Initial), the “water content (K.F. water %)” value amounted to 0.05%. The “change in water content” value in data set [1] is “almost no change in water content”. Moreover, the “content (HPLC) upon 60° C. heat treatment” value in data set [2] (60° C., 1 wk) is 0.999; in data set [2] (60° C., 2 wks), 1.000; in data set [2] (60° C., 4 wks) it was 0.999; in data set [2] (Initial), 1.000. Moreover, the solubility in data set [3] (DW (distilled water)) turned out to be 25.98 mg/mL (≈ 92.8 mM); in data set [3] (pH 1.2), 10.57 mg/mL (≈ 37.8 mM); in data set [3] (pH 4.0), 9.78 mg/mL (≈ 34.9 mM); in data set [3] (pH 5.3), 5.68 mg/mL (≈ 20.3 mM); in data set [3] (pH 6.8), 19.44 mg/mL (≈ 69.5 mM); in data set [3] (pH 7.4), 8.04 mg/mL (≈ 28.7 mM). Also, the “solubility compared to sibutramine hydrochloride monohydrate (in words)” value in data set [3] is “slightly low solubility compared to sibutramine hydrochloride monohydrate; also recorded: slightly lower solubility than sibutramine hydrochloride monohydrate”. The “content (HPLC) in light stability test” value is recorded as 1.000 in data set [4] (Initial); 1.000 in data set [4] (fluorescence, 25° C., 1 wk); 0.999 in data set [4] (fluorescence, 25° C., 2 wks); 1.000 in data set [4] (fluorescence, 25° C., 4 wks).

`CC(C)CC(N(C)C)C1(c2ccc(Cl)cc2)CCC1` (stereo not shown) [Esylate hemihydrate, sibutramine esylate hemihydrate]: the “water content (K.F. water %)” value in data set [1] (10% relative humidity, 25° C., 1 week, hemihydrate) is 2.37%; in data set [1] (10% relative humidity, 25° C., 3 days, hemihydrate), 2.35%; in data set [1] (75% relative humidity, 25° C., 1 week, hemihydrate), 2.35%; in data set [1] (75% relative humidity, 25° C., 3 days, hemihydrate), 2.29%; in data set [1] (90% relative humidity, 25° C., 1 week, hemihydrate), 2.40%; in data set [1] (90% relative humidity, 25° C., 3 days, hemihydrate), 2.44%. In addition, the “water content (K.F. water %)” value in data set [1] (Initial, hemihydrate) was found to be 2.37%. For the same compound, the “change in water content” value in data set [1] is reported as “almost no change in water content”. The “content (HPLC) upon 60° C. heat treatment” value in data set [2] (60° C., 1 wk, hemihydrate) came out at 1.000; in data set [2] (60° C., 2 wks, hemihydrate) it was 0.999; in data set [2] (60° C., 4 wks, hemihydrate) it was 0.999. The solubility is 84.10 mg/mL in data set [3] (DW (distilled water), hemihydrate); 70.65 mg/mL in data set [3] (pH 1.2, hemihydrate); 26.42 mg/mL in data set [3] (pH 4.0, hemihydrate); 19.53 mg/mL in data set [3] (pH 5.3, hemihydrate); 69.42 mg/mL in data set [3] (pH 6.8, hemihydrate); 27.61 mg/mL in data set [3] (pH 7.4, hemihydrate). Moreover, the “solubility compared to sibutramine hydrochloride monohydrate (in words)” value in data set [3] (hemihydrate) is “excellent solubility compared to sibutramine hydrochloride monohydrate”. Further, in data set [3] (distilled water and aqueous solutions of pH 1.2, pH 4.0, pH 5.3, pH 6.8 and pH 7.4), the “solubility relative to sibutramine hydrochloride” value is given as “two times-higher than the solubility of sibutramine hydrochloride”. Besides, the “content (HPLC) in light stability test” value in data set [4] (fluorescence, 25° C., 1 wk, hemihydrate) is 0.999; in data set [4] (fluorescence, 25° C., 2 wks, hemihydrate), 1.000; in data set [4] (fluorescence, 25° C., 4 wks, hemihydrate), 0.999.

Take `CC(C)CC(N(C)C)C1(c2ccc(Cl)cc2)CCC1` (stereo not shown) [Tosylate, sibutramine tosylate]: the “water content (K.F. water %)” value came to 0.07% in data set [1] (10% relative humidity, 25° C., 1 week, listed as Tosyalte); 0.08% in data set [1] (10% relative humidity, 25° C., 3 days, listed as Tosyalte); 0.08% in data set [1] (75% relative humidity, 25° C., 1 week, listed as Tosyalte); 0.05% in data set [1] (75% relative humidity, 25° C., 3 days, listed as Tosyalte); 0.07% in data set [1] (90% relative humidity, 25° C., 1 week, listed as Tosyalte); 0.05% in data set [1] (90% relative humidity, 25° C., 3 days, listed as Tosyalte). Moreover, in data set [1] (Initial, listed as Tosyalte), the “water content (K.F. water %)” value amounted to 0.10%. The “change in water content” value in data set [1] was “almost no change in water content”. Further, the “content (HPLC) upon 60° C. heat treatment” value in data set [2] (60° C., 1 wk) is listed as 0.999; in data set [2] (60° C., 2 wks) it was 1.000; in data set [2] (60° C., 4 wks) it was 0.999; in data set [2] (Initial), 1.000. In addition, the solubility is 24.32 mg/mL in data set [3] (DW (distilled water)); 8.36 mg/mL in data set [3] (pH 1.2); 7.56 mg/mL in data set [3] (pH 4.0); 5.53 mg/mL in data set [3] (pH 5.3); 21.92 mg/mL in data set [3] (pH 6.8); 7.69 mg/mL in data set [3] (pH 7.4). In addition, the “solubility compared to sibutramine hydrochloride monohydrate (in words)” value in data set [3] is reported as “slightly low solubility compared to sibutramine hydrochloride monohydrate; also recorded: slightly lower solubility than sibutramine hydrochloride monohydrate”. Also, the “content (HPLC) in light stability test” value in data set [4] (Initial) turned out to be 1.000; in data set [4] (fluorescence, 25° C., 1 wk), 1.000; in data set [4] (fluorescence, 25° C., 2 wks) it was 0.999; in data set [4] (fluorescence, 25° C., 4 wks), 0.999.

For `O=S(=O)(O)c1ccccc1` [benzenesulfonic acid], the LD50 in data set [5] is 1,157 mg/kg.

`O=S(=O)(O)CCS(=O)(=O)O` [ethane disulfonic acid]: in data set [6], the LDL0 is listed as 68 mg/kg.

`CCS(=O)(=O)O` [ethanesulfonic acid]: the LDL0 in data set [6] is on record as 48 mg/kg.

Regarding `Cc1ccc(S(=O)(=O)O)cc1` [p-toluenesulfonic acid], in data set [5], the LD50 was 2,480 mg/kg.
